Source: patent US20220273588A1, “MONOAMINE OXIDASE B INHIBITORS FOR USE IN THE PREVENTION OR TREATMENT OF PROSTATE CARCINOMA” (TOXIE EUROPE INTELLIGENS KÉMIAI SZENZOROKAT KUTATÓ, …, priority 2019, published 2022)

Assays:
[1] = tested on: androgen-sensitive and castration-resistant human prostate cells; settings: literature preclinical study; cited from earlier work
[2] = tested on: LNCaP cells; test: CellTiter-Glo (ATP level) viability assay on LNCaP cells; assay type: cell-based, human; settings: for viability of LNCaP cells, summary of the study: concentration-dependent manner, 48 h; for viability of LNCaP cells: 48 hours of treatment
Procedure: (§1) RPMI-1640 (Lonza) medium with 10% heat-inactivated FBS (fetal bovine serum, Sigma) and 100 U/ml Penicillin/Streptomycin was used to grow the cells. Cells were treated with drugs freshly dissolved in RPMI medium. Treatment concentrations were determined by widening the concentration range. After 48 h of treatment, cell viability was also quantified using the MTS reduction assay (Promega) as well as a CellTiter-Glo kit (Promega) based on ATP level measurements.
(§2) The CellTiter-Glo assay based on ATP level measurements was performed according to the manufacturer's protocol of pipetting 100 microliters of Celliter-Glo reagent into wells containing 100 microliters of medium, then shaking for 2 minutes and incubating for another 10 minutes. The luminescence signal was then detected with a PerkinElmer AlphaLisa instrument.
To reproduce the literature data, we also used the unpaired t-test also used by Gordon et al (2014) to compare control and treated groups. […] For some results (LNCaP chlororlin MTS method and LNCaP rasagiline and selegiline CellTiter-Glo method) Kruskal-Wallis non-parametric one-way ANOVA method was used with Dunn test, while in other cases one-way ANOVA method was used with Bonferroni post hoc test.
(§3) In our experiments, we performed three parallel experiments, and the experiments were repeated to increase the number of items. For the statistical analysis of two separate experiments the results were pooled, however, the absolute values obtained during the luminescence measurements cannot be used to combine the results. This is because the CellTiter-Glo reagent loses its activity during storage and possible thaw-freeze cycles. Thus, a CellTiter-Glo reagent from a single source can give different relative luminescence values (RLUs) at the same cell number in two different experiments performed at different times. However, in one experiment, the RLU reliably gives the cell number, and accordingly, the percentage viability value of the treated condition relative to the control RLU can be determined with certainty; values from different experimental series can be combined.
(§4) During the evaluation, we normalized to the mean of the control of the given experiment, so the mean of the control was 100% and the percentage of each individual data point relative to the mean of the control was calculated accordingly. One-way ANOVA with Bonferroni post hoc test with p<0.05 significance level was used for statistical validation of viability changes as described above.

[3] = tested on: PC3 cells; test: CellTiter-Glo (ATP level) viability assay on PC3 cells; assay type: cell-based, human; settings: 48 h; for viability of PC3 cells: CellTiter-Glo; for viability of PC3 cells, summary of the study: concentration-dependent manner
Procedure: as §1, §2
To support the applicability of the CellTiter-Glo viability assay method, we validated the method on a PC3 cell line. In this procedure, the measurement was performed with a given number of living cells per well, and the relative luminescence values obtained were plotted as a function of the cell number. A calibration line was placed on the data points by linear regression analysis, and based on the R2 value, it was determined that the relative luminescence value obtained during the measurement was directly proportional to the number of living cells (FIG. 1/C).
as §3, §4

[4] = tested on: human PC3 xenograft; test: Tumor growth in NSG SCID mouse human PC3 xenograft model; assay type: in vivo; settings: 10 mg/kg i.p. once daily from day 14, day 21
Source text: For our experiments, we used 25 3-month-old male NOD (Non Obese Diabetic) SCID (Severe Combined ImmunoDeficiency) Gamma mice (National Institute of Oncology Animal House). Immunodeficiency in these mice (Shultz et al, 1995) is associated with decreased T and B lymphocyte and NK cell function, as well as deficiency is developed in cytokine signaling pathways, in adaptive and innate immune systems. During the experiment, the animals were housed in the animal house of the János Szentágothai Research Center of the University of Pecs, and they were provided with standard rodent food and tap water ad libitum. The animals were kept at 20-24° C., 50-60% relative humidity, in a 12-12 hour dark-light cycle. […]
RPMI-1640 (Lonza) medium with 10% heat-inactivated FBS (Sigma) and 100 U/ml Penicillin/Streptomycin was used to proliferate the PC3 cell line (Wesel, Germany), which was also used for in vitro experiments. […] Cell counts were determined after trypan blue staining with a LUNA II automated cell counter (Logos Biosystems) and 50 million cells were resuspended in 5 ml PBS. […]
On days 4, 7, 11, 14, 18, and 21 of the experiment, the length (a) and width (b) of the growing tumor were measured with a caliper, and then the tumor volume was calculated using the following formula (J B Wu et al., J Clin Invest., 124, 2891-2908): […]

[5] = tested on: LNCaP cells; test: MTS reduction viability assay on LNCaP cells; assay type: cell-based, human; settings: MTS method
Procedure: as §1
In the MTS reduction method (CellTiter 96® AQueous One Solution Cell Proliferation Assay, Promega Corp, Madison, […].), 20 microliters of MTS reagent was used per sample according to the manufacturer's protocol, and after 120 minutes of incubation, absorbance was measured at 492 nm with a microplate reader.
In the studies, we modified the protocol of Gordon et al (2014) as follows: • A volume of 20 microliters per well was used from the MTS reagent as recommended by the manufacturer (10 microliters were used by Grodon et al.). • In our case, an incubation time of 120 min was used to increase accuracy (Gordon et al incubated for 60 min). […] During validation, measurements were performed with a given number of cells per well, and absorbance values were plotted as a function of cell number. A calibration line was placed on the data points by linear regression analysis and the R^2 coefficient of determination was determined. […]

[6] = tested on: metastatic castration-resistant disease; settings: patients; cited from earlier work
[7] = tested on: PC3 prostate carcinoma cell line; test: CellTiter-Glo viability assay on PC3 cells, selegiline, docetaxel and combinations; assay type: cell-based, human; settings: 48 hours
Procedure: In our studies, we used a […] PC3 prostate carcinoma cell line. The culture of the cell line and the study of the effect of the combination of docetaxel and selegiline were performed as previously described, with the changes detailed below.
Selegiline, docetaxel, and selegiline+docetaxel combination studies were performed in parallel, simultaneously, with the same reagents, on a cell population from the same cell culture. For the selegiline, docetaxel and selegiline+docetaxel combination studies, the following changes were applied from the protocol according to the examples of the application: • Treatments with selegiline alone were performed at concentrations ranging from 250 μM to 1 mM (250 μM, 500 μM, 750 μM, 1 mM), while docetaxel alone was administered at a concentration of 1 μM. For combination treatments, 1 μM docetaxel was added to the concentrations corresponding to the selegiline treatments (250 μM selegiline+1 μM docetaxel, 500 μM selegiline+1 μM docetaxel, 750 μM selegiline+1 μM docetaxel, 1 mM selegiline+1 μM docetaxel). • For docetaxel and combination treatments, a 0.01% dimethyl sulfoxide (DMSO) solution prepared with complete RPMI medium (10% FBS, 100 U/ml Penicillin/Streptomycin; solution for culturing and treating PC3 cells) was used as a control. This was used as a solvent control, corresponding to the use of DMSO to prepare a 10 mM docetaxel stock solution. Thus, the 1 μM docetaxel treatments we used also contained 0.01% DMSO. • The change in cell viability induced by selegiline, docetaxel, and combinations thereof was measured after 48 hours with the CellTiter-Glo kit as previously described. • The experiments were performed in 3 different series, and for evaluation they were combined with the previously described normalization. Briefly, during the evaluation, we normalized to the mean of the untreated control in the given experiment, so the mean of the control was 100% and the percentage of each individual data point relative to the mean of the control was calculated accordingly. Because treatments with selegiline and docetaxel alone or in combination were performed in one experiment, we normalized to the mean of the untreated control without DMSO. […] A Shapiro-Wilk and Kolmogorov-Smirnov normality test was performed on the data set, followed by a one-way ANOVA test with a Holm-Sidak's multiple comparison test.

Row | SMILES | growth and proliferation of androgen-sensitive and castration-resistant human prostate cells [1] | viability of LNCaP cells, summary of the study [2] | viability of PC3 cells ([3]; 1 mM) | viability of PC3 cells, summary of the study [3] | rate of tumor growth compared to the group treated with physiological saline [4] | viability of LNCaP cells ([2]; 1 mM, CellTiter-Glo) | viability of LNCaP cells ([2]; 10 mM, CellTiter-Glo) | viability of PC3 cells ([3]; 10 mM) | other results
1 | NNCCc1ccccc1 [phenelzine] | inhibited |  |  |  |  |  |  |  | 
2 | C#CCN(C)CCCOc1ccc(Cl)cc1Cl [clorgylin] | inhibited | significantly reduced | significantly reduced | significantly reduced | significantly reduced |  |  |  | growth of enzalutamide-resistant cells [1]: significantly reduced; viability of LNCaP cells, CellTiter-Glo compared with MTS method ([2]; 48 h clorgylin treatment, CellTiter-Glo): results similar to the MTS method; viability of PC3 cells ([3]; 100 micromolar): significantly reduced; viability of LNCaP cells ([5]; 100 micromolar, 48 h of treatment): significantly reduced; viability of LNCaP cells, concentration dependence ([5]; 48 h): concentration-dependent manner
3 | CC(=O)O[C@@]12CO[C@@H]1C[C@H](O)[C@@]1(C)C(=O)[C@H](O)C3=C(C)[C@@H](OC(=O)[C@H](O)[C@@H](NC(=O)OC(C)(C)C)c4ccccc4)C[C@@](O)([C@@H](OC(=O)c4ccccc4)[C@H]21)C3(C)C [docetaxel] |  |  |  |  |  |  |  |  | increase of overall survival, average [6]: 2-3 months; cell viability compared to the DMSO control ([7]; 1 μM): significantly reduced cell viability
4 | C#CCN(C)[C@H](C)Cc1ccccc1 [selegiline] |  | significantly reduced | significant viability-reducing effect | significantly reduced | significantly reduced | trend is also clearly observed | significant viability-reducing effect | significant viability-reducing effect | viability of PC3 cells, concentration dependence ([7]; 250 μM to 1 mM): concentration-dependent manner; viability of PC3 cells ([7]; 750 μM, Example 3 series): significant decrease in viability; viability of PC3 cells, effect of Example 1 ([7]; 1 mM, Example 3 series): reproduced
5 | C#CCN[C@@H]1CCc2ccccc21 [rasagiline] |  | significantly reduced | significant viability-reducing effect | significantly reduced |  | trend is also clearly observed | significant viability-reducing effect | significant viability-reducing effect | 
